Earlier results as cited in patent publication US7970581B2, “Methods of calculating differences of binding affinities between congeneric pairs of ligands by way of a displaced solvent functional” (The Trustees of Columbia University in the City of New York, priority 2007, dated 2011).

Biological target: factor Xa (Homo sapiens, UniProt P00742)
Details: experimental binding free energy of crystal structure ligand

Sequence of factor Xa (P00742 235-488 limits assumed): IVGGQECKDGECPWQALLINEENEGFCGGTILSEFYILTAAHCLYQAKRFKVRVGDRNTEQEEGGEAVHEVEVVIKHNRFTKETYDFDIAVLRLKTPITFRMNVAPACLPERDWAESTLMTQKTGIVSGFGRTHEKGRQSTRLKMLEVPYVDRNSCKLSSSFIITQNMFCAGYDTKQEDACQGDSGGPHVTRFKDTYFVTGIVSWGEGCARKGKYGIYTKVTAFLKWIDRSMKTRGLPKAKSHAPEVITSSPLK
Sequence of factor Xa (P00742 41-179 partner limits assumed): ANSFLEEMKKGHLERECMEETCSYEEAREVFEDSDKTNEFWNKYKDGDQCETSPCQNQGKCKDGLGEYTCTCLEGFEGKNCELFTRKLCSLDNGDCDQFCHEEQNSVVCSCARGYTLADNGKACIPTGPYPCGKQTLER

Structure (SMILES)	ΔGexp [kcal/mol]
CCOC(=O)CO/N=C(\c1ccccn1)C1(c2ccc3c(c2)nc(CNc2ccc(C(=N)N)cc2)n3C)CC1 [1G2L:T87]	-9.88
Cc1nc2ccccc2n1Cc1ccc2c(c1)nc(CNc1ccc(C(=N)N)cc1)n2C [1G2M:R11]	-10.09
Cc1cc(C)cc(CNC(=O)c2cc3c(C)cccc3n2Cc2cccc(C(=N)N)c2)c1 [1LQD:CMI]	-10.98
CN1CCN(Cc2csc(C(=O)Nc3ccc(Cl)cc3C(=O)Nc3ccc(Cl)cc3)c2Cl)CC1 [1MQ5:XLC]	-12.28
COc1cc(Cl)cc(C(=O)Nc2ccc(Cl)cn2)c1NC(=O)c1scc(C/[N+](C)=C2\NCCO2)c1Cl [1MQ6:XLD]	-15.22
N=C(N)c1ccc(CN2CCN(S(=O)(=O)c3cc4ccc(Cl)cc4s3)CC2=O)cc1 [1NFY:RTR]	-12.12
COc1ccc(C(=O)NCC2CCN(c3ccncc3)CC2)cc1OCCc1cc(Cl)cc(Cl)c1 [2BMG:I1H]	-10.57
CC(C)N1CCC(NC(=O)c2cc3ccccc3n2-c2cc(-c3ccc(Cl)s3)on2)CC1 [2BOH:IIA]	-11.63
COc1cccc(Cn2c(C(=O)NC3CCN(C(C)C)CC3)cc3ccccc32)c1 [2BQ7:IID]	-9.62
CC(C)N1CCC(NC(=O)c2cc3ccccc3n2CC(=O)Nc2ccc(Cl)cc2)CC1 [2BQW:IIE]	-11.63
